Patent publication US8536173B2, “Tetrahydroquinoxaline urea derivatives as modulators of 11-B-hydroxysteroid dehydrogenase type I” (SANOFI, priority 2009, dated 2013)
Structures can show the parent of a compound that is named as a salt.

system: not given; settings: not given

Question: For Cc1noc([C@]23CC4CC(C2)[C@H](NC(=O)N2CCN(c5ccc(N6CCN(S(=O)(=O)C7CC7)CC6)cn5)c5ccccc52)C(C4)C3)n1, which melting point is on record?
Answer: 135 °C

Question: Which melting point does the source give for NC(=O)C[C@]12CC3CC(C1)[C@H](NC(=O)N1CCN(c4ccc(N5CCN(S(=O)(=O)C6CC6)CC5)cn4)c4ccccc41)C(C3)C2 here?
Answer: 120 to 135 °C

Question: Which melting point does the source give for CC(C)(C)N1CCN(c2ccc(N3CCN(C(=O)N[C@H]4C5CC6CC4C[C@@](C(O)C(F)(F)F)(C6)C5)c4ccccc43)nc2)CC1 (stereo partly drawn) here?
Answer: 192 to 196 °C

Question: For CC(C)(C)N1CCN(c2ccc(N3CCN(C(=O)N[C@H]4C5CC6CC4C[C@@](Cc4nn[nH]n4)(C6)C5)c4ccccc43)nc2)CC1, which melting point is on record?
Answer: 160 to 170 °C

Question: With CONC(=O)[C@]12CC3CC(C1)[C@H](NC(=O)N1CCN(c4ccc(N5CCN(S(=O)(=O)C6CC6)CC5)cn4)c4ccccc41)C(C3)C2 as the compound, how does the melting point read?
Answer: 125 to 163 °C

Question: Which melting point does the source give for CC(C)(C)N1CCN(c2ccc(N3CCN(C(=O)N[C@H]4C5CC6CC4C[C@@](NS(C)(=O)=O)(C6)C5)c4ccccc43)nc2)CC1 here?
Answer: 165 °C

Question: Which melting point does the source give for CC(C)(C)N1CCN(c2ccc(N3CCN(C(=O)N[C@H]4C5CC6CC4C[C@@](CNS(C)(=O)=O)(C6)C5)c4ccccc43)nc2)CC1 (as salt: hydrochloride) here?
Answer: 252 °C

Question: For NC[C@]12CC3CC(C1)[C@H](NC(=O)N1CCN(c4ccc(N5CCN(S(=O)(=O)C6CC6)CC5)cn4)c4ccccc41)C(C3)C2 (as salt: hydrochloride), which melting point is on record?
Answer: 197 °C

system: 11βHSD1 in the eyes; settings: healthy volunteers, after seven days of treatment; cited from earlier work

Question: With CC1(C)[C@@H](OC(=O)CCC(=O)O)CC[C@]2(C)[C@H]3C(=O)C=C4[C@@H]5C[C@@](C)(C(=O)O)CC[C@]5(C)CC[C@@]4(C)[C@]3(C)CC[C@@H]12 [carbenoxolone] as the compound, how does the “IOP is reduced by” value read?
Answer: 18%
